From patent publication US11896592B2, “Certain triazolopyridines and triazolopyrazines, compositions thereof and methods of use therefor” (Hutchison Medipharma Limited, priority 2009, dated 2024) come the findings set out here.

This experiment addresses T1, Recombinant human Met (c-Met) (Homo sapiens, UniProt P08581).
T1 construct: purchased Invitrogen PV3143
As to the kind of experiment: Inhibition of c-Met kinase activity using Transcreener FP assay. Type of experiment: biochemical. The note with it: Poly E4Y substrate, 28° C. 45 min, read-out: IC50, inhibition of c-Met kinase activity. How it is done:
Compound dilution: dilute test articles to 5 folds of the testing concentration using 20% DMSO.
The mixture is kept on ice until use;
Prepare ATP standard curve stock as following:
3. Enzymatic reaction: in 96-well reaction plate
Add 5 μL of test article or 5 μL of 20% DMSO or 5 μL of 500 mM EDTA;
Add 10 μL of Enzyme/Substrate stock;
Add 10 μL of ATP Diluent to begin the enzyme reaction and mix on plate shaker;
Add 5 μL of 20% DMSO, 10 μL of assay buffer and 10 μL of ATP standard curve stock into standard curve wells;
Gently shake at 28° C. for 45 min.
4. Stop reaction and detect ADP
Prepare Detection Mix: According to the procedures described in the Assay kit, Alexa633 tracer, ADP antibody and stop & detect buffer were added into H2O and mixed thoroughly. Prepare Tracer Only control: According to the procedures described in the Assay kit, ADP Alexa633 tracer and stop & detect buffer were added to H2O and mixed throughly.
Prepare No Tracer control: According to the procedures described in the Assay kit, the stop & detect buffer was diluted with H2O;
Add 25 μL of detection mix, Tracer Only control and No Tracer control into corresponding wells, respectively;
The reaction plate was gently shaken at 28° C. for 1 h;
Florescence polarization (FP) was measured on TECAN F500. Excitation wavelength: 610 nm, Emission wavelength: 670 nm.
Compound well [ADP] represents the ADP concentration of the compound well. Positive control well [ADP] represents the ADP concentration of the 20% DMSO well. Conversion of mP value to ADP concentration is based on the formula which is determined by standard curve.
IC50: calculated using XL-Fit 2.0 software.

T1 sequence (P08581 956-1390 limits assumed): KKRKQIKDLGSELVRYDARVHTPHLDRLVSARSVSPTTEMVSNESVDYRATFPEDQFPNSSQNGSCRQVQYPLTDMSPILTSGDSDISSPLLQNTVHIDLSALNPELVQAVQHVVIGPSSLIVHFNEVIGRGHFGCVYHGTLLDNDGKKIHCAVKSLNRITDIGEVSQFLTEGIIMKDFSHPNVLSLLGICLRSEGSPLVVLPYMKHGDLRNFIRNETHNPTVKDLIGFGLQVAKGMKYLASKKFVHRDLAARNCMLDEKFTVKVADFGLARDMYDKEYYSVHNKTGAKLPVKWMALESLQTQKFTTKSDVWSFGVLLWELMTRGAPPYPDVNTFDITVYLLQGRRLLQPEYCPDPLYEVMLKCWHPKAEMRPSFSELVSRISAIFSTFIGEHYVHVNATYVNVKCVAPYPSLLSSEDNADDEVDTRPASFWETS

Turning to `c1cnc2ccc(Cn3nnc4ncc(Nc5cncc(N6CCOCC6)c5)nc43)cc2c1` [Compound 193], the IC50 (usually the midpoint of a concentration-inhibition curve) lay within 1 to 100 nM. `c1cnc2ccc(Cn3nnc4ncc(Nc5ccnc(O[C@H]6CCOC6)c5)nc43)cc2c1` [Compound 217]: the IC50 is 1 to 100 nM. On to `OCCOc1cc(Nc2cnc3nnn(Cc4ccc5ncccc5c4)c3n2)ccn1` [Compound 194], for which the concentration for half-maximal inhibition (IC50) was in the range of 1 to 100 nM. In the case of `COCCNc1ccncc1Nc1cnc2nnn(Cc3ccc4ncccc4c3)c2n1` [Compound 209] it was 100 to 1000 nM; in that of `COCc1cnc2ccc(Cn3nnc4ncc(-c5cnn(CCO)c5)nc43)cn12` [Compound 309], 1 to 100 nM.

As for `c1cnc2ccc(Cn3nnc4ncc(Nc5ccnc(O[C@@H]6CCOC6)c5)nc43)cc2c1` [Compound 218], the IC50 was in the range of 1 to 100 nM. The same measure for `CC1N=CC(c2cnc3nnn(Cc4cc5cccnc5s4)c3n2)=N1` (stereo not drawn) [Compound 2]: 100 to 1000 nM.

`COCCNc1cncc(Nc2cnc3nnn(Cc4ccc5ncccc5c4)c3n2)c1` [Compound 203]: the IC50 was in the range of 1 to 100 nM. In the case of `Cc1cncc(Nc2cnc3nnn(Cc4ccc5ncccc5c4)c3n2)c1` [Compound 158] it was 1 to 100 nM; in that of `COCCn1cc(-c2ccc3nnn(Cc4c[nH]c5ncccc45)c3n2)cn1` [Compound 111], 1 to 100 nM. In the case of `CC(=O)Nc1ccc(-c2ccc3nnn(Cc4ccc5ncccc5c4)c3n2)cn1` [Compound 91] it was 1 to 100 nM; in that of `CS(=O)(=O)Nc1cccc(-c2ccc3nnn(Cc4ccc5ncccc5c4)c3n2)c1` [Compound 85], 1 to 100 nM.

`OCCn1cc(-c2ccc3nnn(Cc4c[nH]c5ncccc45)c3n2)cn1` [Compound 86]: the IC50 was in the range of 1 to 100 nM. Consider `FC(F)(F)Cn1cc(-c2cnc3nnn(Cc4ccn5nccc5n4)c3n2)cn1` [Compound 293], for which the IC50 fell in the range of 100 to 1000 nM. The same measure for `OC1CCCC1n1cc(-c2ccc3nnn(Cc4ccc5ncccc5c4)c3n2)cn1` (stereo not drawn) [Compound 119]: 100 to 1000 nM. In the case of `COc1ccnc(Nc2cnc3nnn(Cc4ccc5ncccc5c4)c3n2)c1` [Compound 183] it was 1 to 100 nM; in that of `CN(c1ccnc(C#N)c1)c1cnc2nnn(Cc3ccc4ncccc4c3)c2n1` [Compound 239], 1 to 100 nM; in that of `COCCn1cc(-c2cnc3nnn(Cc4cc5[nH]ncc5s4)c3n2)cn1` [Compound 45], 1 to 100 nM.

In the case of `c1cncc(Oc2cnc3nnn(Cc4ccc5ncccc5c4)c3n2)c1` [Compound 258], the IC50 is 1 to 100 nM. In the case of `c1ccc(Sc2cnc3nnn(Cc4ccc5ncccc5c4)c3n2)nc1` [Compound 252] it was 1 to 100 nM; in that of `OC1COCC1Nc1cc(Nc2cnc3nnn(Cc4ccc5ncccc5c4)c3n2)ccn1` (stereo not drawn) [Compound 228], 1 to 100 nM. Take `c1cnc2ccc(Cn3nnc4ncc(Nc5ccc(N6CCOCC6)cn5)nc43)cc2c1` [Compound 165]: the half-maximal inhibitory concentration (IC50) is 1 to 100 nM. In the case of `c1nc2ccc(Cn3nnc4ncc(-c5cnn(C6CNC6)c5)nc43)cn2n1` [Compound 286] it was 100 to 1000 nM; in that of `CCn1ncc2sc(Cn3nnc4ncc(-c5cnn(CCO)c5)nc43)cc21` [Compound 38], 100 to 1000 nM; in that of `OC1(CNc2ccc3nnn(Cc4ccc5ncccc5c4)c3n2)CCCCC1` [Compound 247], 100 to 1000 nM. `FC(F)(F)Cn1cc(-c2ccc3nnn(Cc4ccc5ncnn5c4)c3n2)cn1` [Compound 121]: the half-inhibitory concentration (IC50) lay in the range of 100 to 1000 nM. In the case of `Cc1cnc2ccc(Cn3nnc4ncc(-c5cnn(C)c5)nc43)cn12` [Compound 298] it was 1 to 100 nM. On to `COc1cccnc1Nc1cnc2nnn(Cc3ccc4ncccc4c3)c2n1` [Compound 213], for which the 50% inhibitory concentration (IC50) lay in the range of 1 to 100 nM. In the case of `c1nc2ccc(Cn3nnc4ncc(-c5cnn(C6CCOCC6)c5)nc43)cn2n1` [Compound 55] it was 100 to 1000 nM.

`Clc1ccnc(Nc2cnc3nnn(Cc4ccc5ncccc5c4)c3n2)c1` [Compound 153]: the IC50 was 1 to 100 nM. Turning to `CCCn1cc(-c2ccc3nnn(Cc4ccc5ncccc5c4)c3n2)cn1` [Compound 146], the IC50 was 1 to 100 nM.

Turning to `CNc1ccc(Nc2cnc3nnn(Cc4ccc5ncccc5c4)c3n2)cn1` [Compound 187], the IC50 lay in the range of 100 to 1000 nM. In the case of `Cc1cc(Nc2cnc3nnn(Cc4ccc5ncccc5c4)c3n2)on1` [Compound 160] it was 1 to 100 nM. In the case of `Cn1cc(-c2cc(Cl)c3nnn(Cc4ccc5ncccc5c4)c3n2)cn1` [Compound 263, 6-((7-Chloro-5-(1-methyl-1H-pyrazol-4-yl)-3H-[1,2,3]triazolo[4,5-b]pyridin-3-yl)methyl)quinoline] it was 100 to 1000 nM; in that of `COCc1cnc2ccc([C@@H](C)n3nnc4ncc(-c5cnn(C)c5)nc43)cn12` [Compound 325], 1 to 100 nM. In the case of `CNCc1cnc2ccc(Cn3nnc4ncc(-c5cnn(C)c5)nc43)cn12` [Compound 327, N-methyl-1-(6-((6-(1-methyl-1H-pyrazol-4-yl)-1H-[1,2,3]triazolo[4,5-b]pyrazin-1-yl)methyl)imidazo[1,2-a]pyridin-3-yl)methanamine] it was 1 to 100 nM; in that of `c1cnc2ccc(Cn3nnc4ncc(Nc5ccnc(N6CCOCC6)c5)nc43)cc2c1` [Compound 230], 1 to 100 nM. In the case of `N#Cc1cc(Nc2cnc3nnn(Cc4ccc5ncccc5c4)c3n2)ccn1` [Compound 190], the IC50 fell in the range of 1 to 100 nM. The same measure for `c1cnc2ccc(Cn3nnc4ccc(NC5CCOCC5)nc43)cc2c1` [Compound 253]: 1 to 100 nM; for `COCCOc1cc(Nc2cnc3nnn(Cc4ccc5ncccc5c4)c3n2)ccn1` [Compound 186]: 1 to 100 nM.

Consider `COc1ccc(-c2cnc3nnn(Cc4ccc5nccn5c4)c3n2)cc1` [Compound 57], for which the IC50 was 1 to 100 nM. The same measure for `OCCn1cc(-c2cnc3nnn(Cc4ccn5ncc(CO)c5c4)c3n2)cn1` [Compound 313]: 1 to 100 nM; for `CCn1cc(-c2ccc3nnn(Cc4n[nH]c5ncccc45)c3n2)cn1` [Compound 137]: 1 to 100 nM. The same measure for `c1csc(-c2ccc3nnn(Cc4ccc5ncccc5c4)c3n2)c1` [Compound 87]: 1 to 100 nM. Consider `FC(F)(F)Cn1cc(-c2ccc3nnn(Cc4ccc5ncccc5c4)c3n2)cn1` [Compound 147], for which the IC50 lay in the range of 1 to 100 nM.

Take `c1cnc2ccc(Cn3nnc4ccc(-n5cccn5)nc43)cc2c1` [Compound 80]: the IC50 lay within 100 to 1000 nM. In the case of `CCn1cc(-c2cnc3nnn(Cc4csc5ncccc45)c3n2)cn1` [Compound 41] it was 100 to 1000 nM. In the case of `c1csc(-c2cnc3nnn(Cc4cc5cccnc5s4)c3n2)c1` [Compound 6] it was 100 to 1000 nM; in that of `COCCn1cc(-c2cnc3nnn(Cc4n[nH]c5ncccc45)c3n2)cn1` [Compound 15], 1 to 100 nM; in that of `c1cnc2ccc(Cn3nnc4ccc(-c5cn[nH]c5)nc43)cc2c1` [Compound 145], 1 to 100 nM. With `COc1ccc(-c2ccc3nnn(Cc4ccc5ncccc5c4)c3n2)cn1` [Compound 70], the 50% inhibitory concentration (IC50) is 1 to 100 nM. The same measure for `c1cnc2ccc(Cn3nnc4ccc(Nc5ccncc5)nc43)cc2c1` [Compound 236]: 100 to 1000 nM.

In the case of `N#Cc1cc(Nc2ccc3nnn(Cc4ccc5ncccc5c4)c3n2)ccn1` [Compound 215], the half-maximal inhibitory concentration (IC50) is 1 to 100 nM. In the case of `CCOCc1cnc2ccc(Cn3nnc4ncc(-c5cnn(C)c5)nc43)cn12` [Compound 321] it was 1 to 100 nM; in that of `Cn1cc(-c2cnc3nnn(Cc4ccc5ncc(Br)n5c4)c3n2)cn1` [Compound 278, 1-((3-Bromoimidazo[1,2-a]pyridin-6-yl)methyl)-6-(1-methyl-1H-pyrazol-4-yl)-1H-[1,2,3]triazolo[4,5-b]pyrazine], 1 to 100 nM. Turning to `COCCOc1ccncc1Nc1cnc2nnn(Cc3ccc4ncccc4c3)c2n1` [Compound 208], the IC50 is 100 to 1000 nM. In the case of `FC(F)(F)c1ccnc(Nc2cnc3nnn(Cc4ccc5ncccc5c4)c3n2)c1` [Compound 220] it was 1 to 100 nM; in that of `OC1COCC1Nc1ccnc(Nc2cnc3nnn(Cc4ccc5ncccc5c4)c3n2)c1` (stereo not drawn) [Compound 226], 1 to 100 nM. In the case of `CCC(c1ccc2nccn2c1)n1nnc2ncc(-c3cnn(C)c3)nc21` (stereo not drawn) [Compound 326] it was 1 to 100 nM; in that of `COc1cccc(Nc2cnc3nnn(Cc4ccc5ncccc5c4)c3n2)n1` [Compound 197], 1 to 100 nM; in that of `CC(c1c[nH]c2ncccc12)n1nnc2ccc(-c3cnn(CCO)c3)nc21` (stereo not drawn) [Compound 113], 1 to 100 nM. `OCCNc1ccnc(Nc2cnc3nnn(Cc4ccc5ncccc5c4)c3n2)c1` [Compound 205]: the IC50 lay in the range of 100 to 1000 nM. The same measure for `COCCOc1cccc(-c2ccc3nnn(Cc4ccc5ncccc5c4)c3n2)c1` [Compound 96]: 100 to 1000 nM; for `Cc1ccc(-c2ccc3nnn(Cc4ccc5ncccc5c4)c3n2)cn1` [Compound 79]: 100 to 1000 nM. Consider `COCCOc1ccc(-c2ccc3nnn(Cc4ccc5ncccc5c4)c3n2)cc1` [Compound 97], for which the IC50 is 1 to 100 nM.

`OCCn1cc(-c2ccc3nnn(Cc4ccc5nccn5n4)c3n2)cn1` [Compound 273]: the IC50 was in the range of 100 to 1000 nM.
